Measurements as given in patent publication US20240246954A1, “COMPOSITIONS AND METHODS FOR INHIBITING KRAS” (TheRas, Inc., priority 2021, published 2024).

How the values were obtained:
[1] = biological target: T1, Avi-KRAS G12D (1-169) GppNHp/RAF1 RBD-3×FLAG (52-151) (Homo sapiens, UniProt P01116, G12D); experiment: HTRF Raf1-KRAS G12D-GppNHp disruption assay; assay type: biochemical; conditions: 1 h incubation
T1 construct: Avi-KRAS G12D (1-169) GppNHp
How it was run: (§1)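 HTRF read-out (320 nm excitation, 615 nm emission) after two 1 h room-temperature incubations, first with protein mix, then detection reagents. Ten-point dilution series starting at 100 μM; results given as % activity relative to DMSO at 100%.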

[2] = biological target: T2, Avi-KRAS G12D/Q25A (1-169) GppNHp/3×FLAG-PI3KCA (157-299) (Homo sapiens, UniProt P01116, G12D/Q25A); experiment: HTRF PI3KCA-KRAS G12D/Q25A-GppNHp disruption assay; assay type: biochemical; conditions: 1 h incubation
T2 construct: Avi-KRAS G12D/Q25A (1-169) GppNHp
T2 sequence (P01116 1-169 isoform P01116-2 G12D/Q25A limits assumed): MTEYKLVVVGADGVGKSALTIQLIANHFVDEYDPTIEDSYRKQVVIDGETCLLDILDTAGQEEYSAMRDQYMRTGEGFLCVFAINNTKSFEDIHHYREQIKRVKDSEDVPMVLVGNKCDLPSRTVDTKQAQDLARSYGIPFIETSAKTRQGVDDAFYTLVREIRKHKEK
How it was run: as §1

T1 sequence (P01116 1-169 isoform P01116-2 G12D limits assumed): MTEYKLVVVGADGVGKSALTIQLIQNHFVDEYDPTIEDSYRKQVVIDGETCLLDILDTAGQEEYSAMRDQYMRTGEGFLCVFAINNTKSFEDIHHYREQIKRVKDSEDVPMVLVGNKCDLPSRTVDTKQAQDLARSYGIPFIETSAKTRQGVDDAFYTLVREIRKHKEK

Structure (SMILES)	IC50 [1] [µM]	IC50 [2] [µM]
CN1CCC[C@H]1COc1nc(N2CC3(CCCN3)C2)c2cc(Cl)c(-c3ccc(F)c4sc(N)nc34)c(F)c2n1 [Compound 85]	10 to 30	10 to 30
CN1CCC[C@H]1COc1nc(NC2CNC2)c2cnc(-c3ccc(F)c4sc(N)nc34)c(F)c2n1 [Compound 80]	10 to 30	10 to 30
C[C@H]1CN(c2nc(OC[C@@H]3CCCN3C)nc3c(F)c(-c4ccc(F)c5sc(N)nc45)c(Cl)cc23)CCN1 [Compound 84]	10 to 30	10 to 30
COc1c(Cl)c(-c2ccc(F)c3sc(N)nc23)c(F)c2ncnc(N3CCNCC3)c12 [Compound 125, 4-(6-chloro-8-fluoro-5-methoxy-4-(piperazin-1-yl)quinazolin-7-yl)-7-fluorobenzo[d]thiazol-2-amine]	10 to 30	10 to 30
CN1C[C@H](F)C[C@H]1COc1nc(NC2CNC2)c2cc(-c3ccoc3)c(-c3ccc(F)c4sc(N)nc34)c(F)c2n1 [Compound 135]	1 to 10	1 to 10
CN(C)CCNc1nc(OC[C@@H]2CCCN2C)nc2c(F)c(-c3ccc(F)c4sc(N)nc34)c(Cl)cc12 [Compound 75]	1 to 10	10 to 30
Nc1nc2c(-c3c(C(F)(F)F)cc4c(N5CCNCC5)ncnc4c3F)ccc(F)c2s1 [Compound 65, 7-fluoro-4-(8-fluoro-4-(piperazin-1-yl)-6-(trifluoromethyl)quinazolin-7-yl)benzo[d]thiazol-2-amine]	10 to 30	10 to 30
CN1CCC[C@H]1COc1nc(NC2CN(C(=O)CN)C2)c2cc(Cl)c(-c3ccc(F)c4sc(N)nc34)c(F)c2n1 [Compound 97]	1 to 10	10 to 30
CN1CCC[C@H]1COc1nc(NC2CN(C(=O)CN)C2)c2cc(C(F)(F)F)c(-c3ccc(F)c4sc(N)nc34)c(F)c2n1 [Compound 114]	1 to 10	1 to 10

The next lines start with the values.

IC50 [1] [µM]	IC50 [2] [µM]	Structure (SMILES)
1 to 10	1 to 10	COc1cc2c(N3CCNCC3)nc(OCC34CCCN3CCC4)nc2c(F)c1-c1ccc(F)c2sc(N)nc12 [Compound 216, 7-fluoro-4-(8-fluoro-6-methoxy-4-(piperazin-1-yl)-2-((tetrahydro-1H-pyrrolizin-7a(5H)-yl)methoxy)quinazolin-7-yl)benzo[d]thiazol-2-amine]
0.1 to 1	1 to 10	C[C@@H]1CN(c2nc(OC[C@@]34CCCN3C[C@H](F)C4)nc3c(F)c(-c4ccc(F)c5sc(N)nc45)c(C(F)(F)F)cc23)CCN1 [Compound 212]
0.1 to 1	1 to 10	Nc1nc2c(-c3c(C(F)(F)F)cc4c(N5CCC6(CNC6)C5)nc(OCC56CCCN5CCC6)nc4c3F)ccc(F)c2s1 [Compound 307]
1 to 10	10 to 30	NCC(=O)N1CC[C@@H]2[C@H]1CN2c1nc(OCC23CCCN2CCC3)nc2c(F)c(-c3ccc(F)c4sc(N)nc34)c(-c3ccoc3)cc12 [Compound 153]
0.1 to 1	1 to 10	CN(c1nc(OCC23CCCN2CCC3)nc2c(F)c(-c3ccc(F)c4sc(N)nc34)c(C(F)(F)F)cc12)[C@H]1CC[C@@H](N)CC1 (atropisomer, axis not shown) [Compound 294]
10 to 30	10 to 30	CC(C)N(c1nc(OC[C@@H]2CCCN2C)nc2c(F)c(-c3ccc(F)c4sc(N)nc34)c(Cl)cc12)C1CNC1 [Compound 180]
0.1 to 1	1 to 10	Nc1nc2c(-c3c(C(F)(F)F)cc4c(N5CCC6(CCNC6)CC5)nc(OCC56CCCN5CCC6)nc4c3F)ccc(F)c2s1 [Compound 308]
10 to 30	10 to 30	CN1CC(F)(F)C[C@H]1COc1nc(N2CCNCC2)c2cc(C(F)(F)F)c(-c3ccc(F)c4sc(N)nc34)c(F)c2n1 [Compound 160]
1 to 10	10 to 30	C[C@@H]1CN(c2nc(OC[C@]34CCCN3C[C@H](F)C4)nc3c(F)c(-c4ccc(F)c5sc(N)nc45)c(C(F)(F)F)cc23)C[C@H](C)N1 [Compound 215]
